From patent US9572785B2, “DP2 antagonist and uses thereof” (Brickell Biotech, Inc., priority 2009, dated 2017)
pIC50: −log10 of the molar value. Like-named read-outs stand apart in the source and are kept apart here.

Legend:
[1] = target: Cytochrome P450 Enzyme 2C19 (Homo sapiens, UniProt P33261); experiment: Extracellular cytochrome P450 inhibition, CYP2C19
Description: (§1) In general, microsomes at protein concentrations as defined in Table 12 were mixed with buffer (100 mM KH2PO4, pH 7.4), MgCl2 (6 mM)) and substrate, and were kept on ice. Aliquots of this mixture (89 μL) were delivered to each well of a 96-well polypropylene plate which contained an aliquot of inhibitor (1 μL) in acetonitrile:water (1:1). Final solvent concentrations were less than 1% (v/v). Incubations were initiated with the addition of 10 μL β-NADPH (10 mM stock) to a final volume of 100 μL. […] Samples were centrifuged at 4° C., and supernatant was transferred for LC-MS/MS analysis.

[2] = Properties of the amorphous phase; type: physicochemical; conditions: from 0% to 90% relative humidity
[3] = Canine studies of formulations; type: in vivo; conditions: oral formulations
[4] = target: Cytochrome P450 Enzyme 2C9 (Homo sapiens, UniProt P11712); experiment: Extracellular cytochrome P450 inhibition, CYP2C9; type: in vitro ADME; conditions: diclofenac 4′-hydroxylation, microsomes
Description: as §1

[5] = target: Cytochrome P450 Enzyme 2D6 (Homo sapiens, UniProt P10635); experiment: Extracellular cytochrome P450 inhibition, CYP2D6; type: in vitro ADME; conditions: dextromethorphan O-demethylation, microsomes
Description: as §1

[6] = target: T1, Cytochrome P450 Enzyme 1A2 (Homo sapiens, UniProt P05177)
T1 sequence (P05177 1-516): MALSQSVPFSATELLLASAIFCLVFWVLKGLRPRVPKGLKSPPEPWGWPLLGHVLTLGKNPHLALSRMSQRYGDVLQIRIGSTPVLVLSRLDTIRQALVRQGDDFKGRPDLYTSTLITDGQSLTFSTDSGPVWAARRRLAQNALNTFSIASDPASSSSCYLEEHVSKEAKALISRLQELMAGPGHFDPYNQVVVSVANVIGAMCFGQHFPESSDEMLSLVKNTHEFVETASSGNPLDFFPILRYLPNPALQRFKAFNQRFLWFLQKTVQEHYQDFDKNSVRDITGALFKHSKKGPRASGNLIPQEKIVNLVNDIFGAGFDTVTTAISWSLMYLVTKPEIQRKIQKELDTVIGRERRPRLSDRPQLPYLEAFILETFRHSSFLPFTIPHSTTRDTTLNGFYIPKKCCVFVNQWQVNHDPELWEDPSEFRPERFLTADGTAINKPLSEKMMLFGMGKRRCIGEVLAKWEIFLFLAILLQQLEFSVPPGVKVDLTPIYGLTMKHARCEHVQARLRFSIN
Description: as §1

[7] = target: Cytochrome P450 Enzyme 3A4 (Homo sapiens, UniProt P08684); conditions: microsomes
Description: as §1

[8] = tested on: mouse model of ovalbumin (OVA)-induced allergic rhinitis; experiment: Mouse allergic rhinitis model; type: in vivo; conditions: daily 10 mg/kg PO, OVA-primed and challenged mice
[9] = tested on: DK-PGD2-induced peripheral blood leukocyte influx; experiment: Guinea pig IV-DKPGD2-induced peripheral blood leukocyte influx; type: in vivo; conditions: for ED50: Cavia porcellus, Leukocyte, oral
Description: Methods were adapted from those detailed Shichijo et al., 2003, Journal of Pharmacology and Experimental Therapeutics, 307:518-525. Male Hartley guinea pigs were immunized with ovalbumin (OVA) on day 0 by intraperitoneal (IP) injection of 1 ml of a 100 μg/ml solution in Imject Alum. They were then used in the DK-PGD2 procedure between days 14 and 21. Subjects were randomly assigned to receive either vehicle (0.5% methyl cellulose, 4 ml/kg, oral (PO)) or one of three to four doses of test compound. Two hours or eighteen hours after dosing, animals were anesthetized with ketamine and challenged with DK-PGD2 (1 mg/kg, IV). Thirty minutes after IV administration, blood was collected via the marginal ear vein into EDTA tubes for cell analysis. 10 μl blood was lysed in 190 μl water followed by a further 20-fold dilution in PBS. A 10 μl fraction was mixed with equal parts trypan blue and loaded on a hemocytometer. Cells were visualized at a magnification of 40× using a LabPro light microscope and totals counted and recorded. Cells are expressed as total cells×10^8 per ml of blood. Inhibition of this effect by select compounds is determined statistically using Graphpad prism.

[10] = tested on: guinea pig OVA model of allergen-induced asthma; experiment: Guinea pig allergic asthma model; type: in vivo; conditions: 3 mg/kg and 30 mg/kg b.i.d. PO, 24 hours after aerosolized OVA challenge
Description: Aerosolized OVA challenge to OVA-primed guinea pigs causes a significant influx of cells into the bronchoalveolar lavage fluid taken 24 hours after challenge. This increase is primarily from influx of eosinophils and neutrophils with a small proportion from macrophages.

in vivo = conditions: Hartley, guinea pig, plasma, po
DP2 receptor = target: T2, DP2 receptor (Homo sapiens, UniProt Q9Y5Y4); experiment: Phase I study, ex vivo PGD2-induced blood eosinophil shape change (ESC); type: in vivo; parameters: endogenous in cells; host or cells: eosinophils in human whole blood; conditions: humans
T2 sequence (Q9Y5Y4 1-395): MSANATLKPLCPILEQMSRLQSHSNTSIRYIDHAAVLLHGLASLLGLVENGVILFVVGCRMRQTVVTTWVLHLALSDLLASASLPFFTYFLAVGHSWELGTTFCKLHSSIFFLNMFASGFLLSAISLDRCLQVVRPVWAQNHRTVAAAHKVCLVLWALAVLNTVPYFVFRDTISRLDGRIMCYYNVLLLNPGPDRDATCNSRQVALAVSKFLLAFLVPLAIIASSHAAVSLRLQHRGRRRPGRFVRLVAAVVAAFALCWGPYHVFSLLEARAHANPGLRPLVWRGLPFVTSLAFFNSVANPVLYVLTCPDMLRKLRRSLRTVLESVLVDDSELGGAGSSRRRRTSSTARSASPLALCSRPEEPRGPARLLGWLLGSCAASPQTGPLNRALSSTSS
Description: Blood is drawn from consenting human volunteers in EDTA vacutainer tubes and used within 1 hr of draw. […] The blood is vortexed and incubated at 37° C. for 5 minutes. 5 μl of 1 μM PGD2 in PBS is added for a final concentration of 50 nM and the tubes briefly vortexed. The reactions are incubated for exactly 5 minutes at 37° C. and then terminated by placing the tubes on ice and immediately adding 250 μl of ice-cold 1:4 diluted Cytofix (BD Biosciences). The reactions are transferred to 12×75 mM polystyrene round bottom tubes and the red blood cells lysed by the addition of 3 ml ammonium chloride lysing solution (150 mM NH4Cl, 10 mM KHCO3, 0.1 mM EDTA disodium salt) and incubation at room temperature for 15 minutes. […] The cells are resuspended in 0.2 ml of ice-cold 1:4 diluted Cytofix (BD Biosciences) and analyzed on a FACSCalibur (BD Biosciences) within 2 hours. […] The specific change in shape induced by PGD2 was calculated as the difference between the percentage of high forward scatter eosinophils in the presence and absence of PGD2.
At varying times after dosing blood is drawn for both pharmacokinetic analyses of drug concentration in blood, and also for PGD2 challenge and eosinophil shape change determination. The extent of receptor blockage is determined from the relationship between drug blood concentration and percentage inhibition of eosinophil shape change.

[11] = Compound 1 2 mg/kg intravenous, semi-quantitative
Description: Rats with surgically placed bile duct and jugular vein cannula were purchased from Charles River Laboratories and allowed to acclimate for 2 days. […] Bile was collected at time-points 0-2, 2-5, 5-8, and 8-24 hrs post-dose in 8 mL scintillation vials and stored at −40° C. until LC-MS/MS analysis.
Analyses were performed using a Waters YMC ODS-AQ column (2.1×150 mm; 3 μm) linked to a Shimadzu LC-10AD VP with SCL-10A VP system controller. Tandem mass spectrometric (MS/MS) detection was carried out on a Sciex ABI3200 QTrap in the positive ion mode (ESI) by multiple reaction monitoring, precursor ion scan, and enhanced product ion scan. The mobile phases contained 10 mM ammonium acetate in water with 0.05% formic acid (solvent A) and 10 mM ammonium acetate in 50% acetonitrile/50% methanol with 0.05% formic acid (solvent B). […] Analytes were separated using a linear gradient as follows:
Analytes were separated using a linear gradient as follows:

Chain of Cytochrome P450 Enzyme 3A4 (P08684 whole entry): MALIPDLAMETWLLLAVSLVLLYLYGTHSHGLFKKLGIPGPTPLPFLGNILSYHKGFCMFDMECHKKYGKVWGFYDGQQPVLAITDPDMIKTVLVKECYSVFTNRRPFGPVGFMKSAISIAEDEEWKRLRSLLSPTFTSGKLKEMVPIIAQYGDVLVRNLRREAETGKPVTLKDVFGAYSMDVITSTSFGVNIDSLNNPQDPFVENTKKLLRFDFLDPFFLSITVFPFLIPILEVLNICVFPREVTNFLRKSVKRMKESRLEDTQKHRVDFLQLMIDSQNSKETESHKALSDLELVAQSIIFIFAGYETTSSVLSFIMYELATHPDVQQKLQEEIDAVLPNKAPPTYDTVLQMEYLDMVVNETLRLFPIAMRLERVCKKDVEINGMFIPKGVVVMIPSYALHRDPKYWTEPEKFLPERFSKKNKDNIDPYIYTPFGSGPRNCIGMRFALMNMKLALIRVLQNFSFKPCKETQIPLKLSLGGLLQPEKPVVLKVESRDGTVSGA
Chain of Cytochrome P450 Enzyme 2C19 (P33261 whole entry): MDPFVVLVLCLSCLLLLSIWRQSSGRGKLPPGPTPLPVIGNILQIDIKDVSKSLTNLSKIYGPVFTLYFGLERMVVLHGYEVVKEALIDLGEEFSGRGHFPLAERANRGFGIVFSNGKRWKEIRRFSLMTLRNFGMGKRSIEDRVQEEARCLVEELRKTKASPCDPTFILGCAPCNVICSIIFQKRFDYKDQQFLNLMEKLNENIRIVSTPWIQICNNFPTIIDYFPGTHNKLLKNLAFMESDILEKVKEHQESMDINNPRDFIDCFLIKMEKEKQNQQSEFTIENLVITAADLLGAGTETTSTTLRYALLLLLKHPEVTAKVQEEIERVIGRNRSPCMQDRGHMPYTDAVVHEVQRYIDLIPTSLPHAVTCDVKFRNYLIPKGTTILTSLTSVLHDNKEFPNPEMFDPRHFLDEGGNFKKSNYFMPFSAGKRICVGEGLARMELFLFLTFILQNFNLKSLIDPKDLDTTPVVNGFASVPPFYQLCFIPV
Chain of Cytochrome P450 Enzyme 2C9 (P11712 whole entry): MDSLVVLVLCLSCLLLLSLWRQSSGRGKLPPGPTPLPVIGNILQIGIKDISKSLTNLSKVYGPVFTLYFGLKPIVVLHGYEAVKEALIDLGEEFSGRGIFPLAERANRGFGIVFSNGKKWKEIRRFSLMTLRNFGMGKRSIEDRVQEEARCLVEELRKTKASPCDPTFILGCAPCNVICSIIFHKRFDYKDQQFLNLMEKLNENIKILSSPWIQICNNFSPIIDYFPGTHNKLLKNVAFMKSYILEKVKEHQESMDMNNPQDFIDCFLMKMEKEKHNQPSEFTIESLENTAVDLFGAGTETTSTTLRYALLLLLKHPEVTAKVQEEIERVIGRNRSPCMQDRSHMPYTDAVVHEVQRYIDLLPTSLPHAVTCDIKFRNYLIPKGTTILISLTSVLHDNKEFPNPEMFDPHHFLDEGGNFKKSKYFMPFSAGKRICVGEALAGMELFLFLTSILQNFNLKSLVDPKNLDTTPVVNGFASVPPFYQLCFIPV
Chain of Cytochrome P450 Enzyme 2D6 (P10635 whole entry): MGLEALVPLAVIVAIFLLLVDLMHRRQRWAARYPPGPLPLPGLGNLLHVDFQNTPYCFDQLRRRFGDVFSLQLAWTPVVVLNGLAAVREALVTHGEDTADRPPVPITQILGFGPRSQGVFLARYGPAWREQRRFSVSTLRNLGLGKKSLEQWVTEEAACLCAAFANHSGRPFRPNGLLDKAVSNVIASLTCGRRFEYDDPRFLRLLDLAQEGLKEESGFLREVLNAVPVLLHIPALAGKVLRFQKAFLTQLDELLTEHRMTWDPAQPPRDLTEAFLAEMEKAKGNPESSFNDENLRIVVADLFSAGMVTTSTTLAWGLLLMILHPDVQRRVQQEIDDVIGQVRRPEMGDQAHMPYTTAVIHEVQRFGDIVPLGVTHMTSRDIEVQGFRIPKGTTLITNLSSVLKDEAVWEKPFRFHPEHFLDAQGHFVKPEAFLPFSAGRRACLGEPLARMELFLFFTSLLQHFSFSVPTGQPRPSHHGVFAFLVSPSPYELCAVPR

`CCC1(c2ccccc2)C(=O)NC(=O)N(Cc2ccccc2)C1=O` (single isomer, unassigned; (-)) [(-)-N-3-benzyl-phenobarbital, reference compound] showed a pIC50 ([1]; mephenytoin 4′-hydroxylation, microsomes) of 5.92.

For `CCN(Cc1cc(C(F)(F)F)ccc1-c1cc(CC(=O)[O-])ccc1OC)C(=O)NCc1ccccc1.[Na+]` [Compound 2, [2′-(3-benzyl-1-ethyl-ureidomethyl)-6-methoxy-4′-trifluoromethyl-biphenyl-3-yl]-acetic acid, sodium salt], the “hygroscopicity, weight change” value [2] was 36%, the absorption [3] was “rapidly absorbed in the stomach and upper gastrointestinal tract” and the pIC50 [4] was < 4.30. The pIC50 [1] was < 4.30, the pIC50 [5] was < 4.30 and the pIC50 [6] was < 4.30. The pIC50 ([7]; IC50, midazolam 1-hydroxylation) was 4.40, the pIC50 ([7]; IC50, testosterone 6β-hydroxylation) was < 4.30 and the nasal rubs [8] was “trend toward a decrease”. For the same compound, the sneezing behavior [8] was “significantly reduced sneezing behavior”, the “associated EC50 (plasma concentration)” value ([9]; 2 hr study) was 0.055 µM and the “inhibition of DK-PGD2-induced peripheral blood leukocyte increase” value ([9]; 2 hr study, oral 0.1 mg/kg) was 21%. The “inhibition of DK-PGD2-induced peripheral blood leukocyte increase” value ([9]; 2 hr study, oral 1 mg/kg) was 59%, the “inhibition of DK-PGD2-induced peripheral blood leukocyte increase” value ([9]; 2 hr study, oral 10 mg/kg) was 62% and the “inhibition of DK-PGD2-induced peripheral blood leukocyte increase” value ([9]; 2 hr study, oral 30 mg/kg) was 80%. For the same compound, the “observed EC50” value ([9]; 18 hr study) was < 0.04 µM, the “inhibition of peripheral blood leukocyte numbers” value ([9]; 18 hr study, oral 1 mg/kg) was 0% and the “inhibition of peripheral blood leukocyte numbers” value ([9]; 18 hr study, oral 10 mg/kg) was 29%. For the same compound, the “inhibition of peripheral blood leukocyte numbers” value ([9]; 18 hr study, oral 30 mg/kg) was 50%, the “inhibition of peripheral blood leukocyte numbers” value ([9]; 18 hr study, oral 100 mg/kg) was 77% and the ED50 ([9]; 2 hr study, read-out: ED50) was 0.85 mg/kg. The ED50 ([9]; 18 hr study, read-out: calculated ED50) was 30 mg/kg, the “cellular influx into bronchoalveolar lavage fluid” value [10] was “dose-dependently reduced total cellular influx including eosinophils and neutrophils” and the concentration at 2.5 h (in vivo; 0.1 mg/kg) was 22 nM. It also gave a concentration at 2.5 h (in vivo; 1 mg/kg) of 61 nM, a concentration at 2.5 h (in vivo; 10 mg/kg) of 222 nM and a concentration at 2.5 h (in vivo; 30 mg/kg) of 727 nM. For the same compound, the inhibition at 100 mg (DP2 receptor; at 24 hours, 100 mg dose) was 75 to 90% and the “inhibition of the PGD2-induced eosinophil shape change (ESC)” value (DP2 receptor; at Cmax, doses equal to or greater than 30 mg) was 80-100%.

With `CCN(Cc1cc(C(F)(F)F)ccc1-c1cc(CC(=O)O[C@@H]2O[C@H](C(=O)O)[C@@H](O)[C@H](O)[C@H]2O)ccc1OC)C(=O)NCc1ccccc1` [Compound M2, acyl gluconuride of [2′-(3-benzyl-1-ethyl-ureidomethyl)-6-methoxy-4′-trifluoromethyl-biphenyl-3-yl]-acetic acid] the “metabolite in rat bile, peak area relative to parent” value [11] was 273 % of parent.
